The source of these data is patent publication US9119853B2, “Sanglifehrin based compounds” (priority 2010, dated 2015).

Converted amounts (≈) assume the structure as drawn. Like-named read-outs stand apart in the source and are kept apart here.

One series concerns HIV-1. To be noted: clinical, Steyn et al., 2006, cited from earlier work.
A further series deals with HBV. To be noted: Ptak et al. 2008; read-out: IC50 against HBV; cited from earlier work.
For series [1] the following is noted: pH 7.4.
The test system of another series is Huh5.2 cells. Put plainly: Anti-metabolic effect (MTS) in the replicon cell line. In general terms: In antiviral work, replicon cells carry a viral genome segment that copies itself.
The target in series [2] is T1, GST-CypD / Con1 NS5A-His complex (Homo sapiens, UniProt P30405). Put plainly: ELISA analysis of Cyp-NS5A interaction (CypD-NS5A disruption). In general terms: ELISA stands for enzyme-linked immunosorbent assay.
For series [3], the system named is HCV genotype 1b I389luc-ubi-neo/NS3-3'/5.1 replicon in Huh5.2 cells. Put plainly: microbe, parasite or virus in culture. In kind it is cell-based, Hepatitis C Virus.
The target of a further series is CyPA (Homo sapiens, UniProt P62937). To be noted: cited from earlier work.
Series [4] relates to peripheral blood mononuclear cells (PBMC). Put plainly: Mixed lymphocyte reaction (MLR) for immunosuppressant activity. It counts as cell-based, human. To be noted: for IC50: read-out: Human MLR IC50.
A short description of series [5]: Anti-metabolic effect (MTS) in the replicon cell line. The following applies: human.
Series [6] deals with HIV (pNL4.3-GFP / pNL4.3-BaL-GFP) in macrophages. Put plainly: microbe, parasite or virus in culture. To be noted: Human immunodeficiency virus 1, BAL, Macrophage, 48 h, read-out: Macrophages EC50. In kind it is cell-based.
Series [7] relates to HIV (pNL4.3-GFP / pNL4.3-BaL-GFP) in CD4+ T-lymphocytes. Put plainly: microbe, parasite or virus in culture. It counts as cell-based. The following applies: Human immunodeficiency virus 1, BAL, T-lymphocyte, 48 h, read-out: CD4+ T-lymphocytes EC50.
Series [8] has as its system HIV (pNL4.3-GFP / pNL4.3-BaL-GFP) in CD4+ HeLa cells. Put plainly: microbe, parasite or virus in culture. In kind it is cell-based. The following applies: for EC50: Human immunodeficiency virus 1, BAL, HeLa, 48 h, read-out: HeLa cells EC50; for potency at inhibiting HIV infection compared to cyclosporine A, 1 (in words): four cell types.
The nature of a further series: physchem. The following applies: pH 7.4, aqueous buffer, kinetic from dmso stock.
Series [9] has as its target T1, GST-CypD / Con1 NS5A-His complex. Put plainly: biochemical.
For series [10], the system named is HIV (pNL4.3-GFP / pNL4.3-BaL-GFP) in Jurkat cells. Put plainly: microbe, parasite or virus in culture. It counts as cell-based. The following applies: Human immunodeficiency virus 1, BAL, 48 h, read-out: T cells EC50.
Series [11] in a line: Cell viability (dye uptake) in the HBV assay. It counts as cell-based. The following applies: human, HepG2 2.2.15 cells; read-out: TC50. Here is the method:
(§1) Antiviral efficacy against HBV may be tested as follows: HepG2 2.2.15 cells are plated in 96-well microtiter plates. After 16-24 hours the confluent monolayer of HepG2 2.2.15 cells is washed and the medium is replaced with complete medium containing various concentrations of a test compound in triplicate (eg six half-log concentrations). Three days later the culture medium is replaced with fresh medium containing the appropriately diluted test compounds. Six days following the initial administration of the test compound, the cell culture supernatant is collected, treated with pronase and then used in a real-time quantitative TaqMan qPCR assay. The PCR-amplified HBV DNA is detected in real-time by monitoring increases in fluorescence signals that result from the exonucleolytic degradation of a quenched fluorescent probe molecule that hybridizes to the amplified HBV DNA. For each PCR amplification, a standard curve is simultaneously generated using dilutions of purified HBV DNA. Antiviral activity is calculated from the reduction in HBV DNA levels (IC50). A dye uptake assay is then employed to measure cell viability, which is used to calculate toxicity (TC50). The therapeutic index (TI) is calculated as TC50/IC50.

The test system of another series is HepG2 2.2.15 cells. Put plainly: Cell viability (dye uptake) in the HBV assay. It counts as cell-based. To be noted: at concentrations up to 32 μM. How it is done: as §1
The test system of series [12] is HBV in HepG2 2.2.15 cells. Put plainly: HBV antiviral assay (HBV DNA by qPCR). To be noted: for EC50: Hepatitis B virus, read-out: HBV EC50. It counts as cell-based, Hepatitis B Virus. A general note: Real-time PCR tracks product formation cycle by cycle.
Where [13] appears, read: Hepatitis C virus, Huh-5-2, 72 h.

T1 sequence (P30405 30-207, one chain of several): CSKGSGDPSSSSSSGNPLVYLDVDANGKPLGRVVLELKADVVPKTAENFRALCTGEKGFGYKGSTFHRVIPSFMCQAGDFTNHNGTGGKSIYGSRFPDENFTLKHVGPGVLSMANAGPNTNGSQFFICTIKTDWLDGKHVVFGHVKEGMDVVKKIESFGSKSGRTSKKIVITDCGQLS
CyPA, sequence (P62937 whole entry): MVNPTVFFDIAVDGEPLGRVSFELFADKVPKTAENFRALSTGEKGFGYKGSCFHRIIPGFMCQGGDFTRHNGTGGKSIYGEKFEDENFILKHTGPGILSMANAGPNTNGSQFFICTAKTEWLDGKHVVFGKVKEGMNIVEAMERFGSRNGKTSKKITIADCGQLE

As for `C/C=C/C[C@@H](C)[C@@H](O)[C@H]1C(=O)N[C@@H](CC)C(=O)N(C)[C@H](C)C(=O)N(CC)[C@@H](C(C)C)C(=O)N[C@@H](C(C)C)C(=O)N(C)[C@@H](CC(C)C)C(=O)N[C@@H](C)C(=O)N[C@H](C)C(=O)N(C)[C@@H](CC(C)C)C(=O)N(C)[C@@H](CC(C)C)C(=O)N(C)[C@@H](C(C)C)C(=O)N1C` [DEBIO-025], the “reduction of HIV-1 RNA levels” value in the series on HIV-1 (in nine patients) is reported as not below 0.5 log10 copies/mL; in the series with HIV-1 (in two patients), more than 1 log10 copies/mL. In addition, the half-maximal inhibitory concentration (IC50) with HBV was 4100 nM.

`CC[C@H]1C[C@H](C)[C@@]2(NC1=O)O[C@@H](C[C@H](O)[C@@H](C)CC/C=C/C=C(\C)[C@@H]1C/C=C/C=C/[C@H](O)[C@H](C)[C@@H](O)[C@@H](CCC(C)=O)C(=O)N[C@@H](C(C)C)C(=O)N[C@@H](Cc3cccc(O)c3)C(=O)N3CCC[C@H](N3)C(=O)O1)[C@H](C)[C@H](O)[C@@H]2C` [Sanglifehrin A, 5, Sanglifehrin A, reference compound]: in [1], the Solubility amounted to 9.4 µM (≈ 10.2 µg/mL). In addition, in the series on Huh5.2 cells (Huh5.2 cells, MTS, 72 hours), the CC50 is 9100 nM. Moreover, the “cytotoxicity against the cell line (in words)” value with Huh5.2 cells (as shown by CC50) is “more cytotoxicity”. For the same molecule, the IC50 in [2] is 370 nM; in [4] (3H-thymidine proliferation), 215 nM. Moreover, in series [3] (read-out: EC50), the EC50 was determined as 318 nM. Besides, in [3] (read-out: EC90), the EC90 worked out at 5500 nM. For the same molecule, the “higher affinity for CyPA compared to CsA” value on CyPA is recorded as “approximately 20 fold”.

Regarding `CON(C)C(=O)/C=C/C=C(\C)[C@@H]1C/C=C/C=C/C=C(\C)[C@@H](O)[C@@H](CCC(C)=O)C(=O)N[C@@H](C(C)C)C(=O)N[C@@H](Cc2cccc(O)c2)C(=O)N2CCCC(N2)C(=O)O1` (stereo partly shown) [compound 29], the CC50 at 72 h in series [5] is 20200 nM. Besides, in series [2], the “disruption of the CypD-NS5A complex (in words)” value is listed as “potent disruption”. The EC50 in series [6] was 310 nM; in [7], 210 nM; in [8], 400 nM; in series [10], 200 nM; in [3] (setting [13]), 293 nM; in series [12] (HepG2 2.2.15, six days), less than 100 nM. In [8], the “potency at inhibiting HIV infection compared to cyclosporine A, 1 (in words)” value is given as “significantly more potent”. This molecule returned a Solubility in the series “physchem” of 66 µM (≈ 53.2 µg/mL). Besides, in series [9], half-maximal inhibition (IC50) required 250 nM. In series [3], the “Selectivity index (CC50/EC50)” value is on record as 68.4. Also, in [3], the “potency in the Huh5.2 replicon assay (in words)” value was “very potent”. This molecule came in with an EC90 in series [3] (setting [13]) of 1500 nM. In addition, the CC50 at 6 days in series [11] is more than 32000 nM. In addition, the “cytotoxicity in HBV assay (in words)” value in the series with HepG2 2.2.15 cells is “no cytotoxicity”. Also, the “inhibiting replication of HBV (in words)” value in [12] is recorded as “remarkably potent”.

As to `CC(=O)CC[C@H]1C(=O)N[C@@H](C(C)C)C(=O)N[C@@H](Cc2cccc(O)c2)C(=O)N2CCCC(N2)C(=O)O[C@H](/C(C)=C/C=C/C(=O)Nc2ccccn2)C/C=C/C=C/[C@H](O)[C@H](C)[C@H]1O` (stereo partly shown) [compound 48], in series [5], the CC50 at 72 h amounted to 39700 nM. The “disruption of the CypD-NS5A complex (in words)” value in series [2] was “potent disruption”. The EC50 in [6] is 210 nM; in [7] it was 140 nM; in series [8], 250 nM; in [10] it was 110 nM; in series [3] (setting [13]), 167 nM; in series [12] (HepG2 2.2.15, […]), more than 32000 nM. Further, the “potency at inhibiting HIV infection compared to cyclosporine A, 1 (in words)” value in series [8] is given as “significantly more potent”. The 50% inhibitory concentration (IC50) came to 380 nM in series [9] and 1060 nM in series [4] (Homo sapiens, PBMC). Besides, the “potency in the Huh5.2 replicon assay (in words)” value in series [3] is recorded as “very potent”. Further, it took 737 nM to reach the 90% level in series [3] (setting [13]) (EC90). Also, in [11], the CC50 at 6 days is more than 32000 nM. For the same molecule, in [4] (MLR), the “immunosuppressive activity (in words)” value was “very low levels of immunosuppressive activity”.

Broadly, the IC50 is the concentration needed to halve the response being measured. What is called Solubility is the dissolved amount per volume that the medium holds. The low end stands for little dissolved substance, the high end for much dissolved substance. A word on the EC50: it is the midpoint of the concentration-response curve. Usually EC90 stands for the concentration needed for an effect of 90%.
